Source: US8791132B2, “Compounds and methods for treatment of hypertension” (Medivation Technologies, Inc., priority 2011, dated 2014)
Several values for one entry are separate records, joined by “and”; a condition that tells them apart may be missing. Identical values can stand only once. Like-named read-outs stand apart in the source and are kept apart here.

Key:
[1] = target: T1, human recombinant adrenergic α1D receptor (Homo sapiens, UniProt P25100); assay: Radioligand binding, adrenergic α1D ([3H]Prazosin)
T1 construct: expressed in transfected cells; host or cells: HEK-293
T1 sequence (P25100 1-572): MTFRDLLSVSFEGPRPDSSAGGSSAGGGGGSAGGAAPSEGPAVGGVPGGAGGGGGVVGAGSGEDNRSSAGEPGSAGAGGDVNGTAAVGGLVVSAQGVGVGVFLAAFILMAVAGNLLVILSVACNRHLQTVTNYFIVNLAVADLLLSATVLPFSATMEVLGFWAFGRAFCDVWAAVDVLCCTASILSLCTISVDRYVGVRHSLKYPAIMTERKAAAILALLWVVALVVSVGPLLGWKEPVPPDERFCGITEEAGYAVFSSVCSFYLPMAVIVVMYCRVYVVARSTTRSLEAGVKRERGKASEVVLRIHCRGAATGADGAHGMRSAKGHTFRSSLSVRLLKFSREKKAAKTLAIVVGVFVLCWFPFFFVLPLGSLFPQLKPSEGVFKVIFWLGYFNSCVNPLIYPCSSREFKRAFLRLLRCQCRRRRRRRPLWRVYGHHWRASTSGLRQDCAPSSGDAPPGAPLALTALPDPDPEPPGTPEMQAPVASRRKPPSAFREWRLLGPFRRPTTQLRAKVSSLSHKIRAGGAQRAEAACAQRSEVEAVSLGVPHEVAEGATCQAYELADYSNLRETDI
Method: Compounds were incubated with 0.6 nM [3H]Prazosin for 60 min at 25° C. Non-specific binding was estimated in the presence of 10 μM phentolamine. Receptor proteins were filtered and washed, the filters were then counted to determine [3H]Prazosin specifically bound. […] Biochemical assay results are presented as the percent inhibition of specific binding in Table B1.

[2] = target: T2, human recombinant adrenergic α2A receptor (Homo sapiens, UniProt P08913); assay: Radioligand binding, adrenergic α2A ([3H]MK-912); conditions: for Percentage inhibition of ligand binding, Adrenergic α2A: 0.1 µM; for inhibition at 0.03 µM: read-out: Percentage inhibition of ligand binding, Adrenergic α2A (0.03 μM), compound at 0.03 μM
T2 construct: expressed in transfected cells; host or cells: insect Sf9 cells
T2 sequence (P08913 1-465): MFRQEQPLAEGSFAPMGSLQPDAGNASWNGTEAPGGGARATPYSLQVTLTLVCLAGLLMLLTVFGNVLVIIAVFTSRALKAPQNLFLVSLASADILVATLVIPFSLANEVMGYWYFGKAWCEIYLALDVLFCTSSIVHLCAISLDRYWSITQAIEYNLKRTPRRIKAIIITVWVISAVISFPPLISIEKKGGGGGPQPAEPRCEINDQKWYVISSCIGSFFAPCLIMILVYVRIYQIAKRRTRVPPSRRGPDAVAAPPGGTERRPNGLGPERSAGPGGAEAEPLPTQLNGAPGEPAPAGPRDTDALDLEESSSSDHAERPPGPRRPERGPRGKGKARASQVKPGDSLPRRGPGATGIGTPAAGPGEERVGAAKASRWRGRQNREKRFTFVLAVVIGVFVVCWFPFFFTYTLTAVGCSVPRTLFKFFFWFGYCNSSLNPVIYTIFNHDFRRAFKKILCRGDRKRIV
Procedure, shortened: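 Receptor expressed in Sf9 cells, in 50 mM Tris-HCl pH 7.4, 12.5 mM MgCl2, 2 mM EDTA; compounds incubated with 1 nM [3H]MK-912 for 60 min at 25 °C.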

[3] = target: T3, human recombinant adrenergic α2B receptor (Homo sapiens, UniProt P18089); assay: Radioligand binding, adrenergic α2B ([3H]Rauwolscine); conditions: for inhibition at 0.03 µM / inhibition at 0.1 µM: [3H]Rauwolscine
T3 construct: expressed in transfected cells; host or cells: CHO-K1
T3 sequence (P18089 1-450): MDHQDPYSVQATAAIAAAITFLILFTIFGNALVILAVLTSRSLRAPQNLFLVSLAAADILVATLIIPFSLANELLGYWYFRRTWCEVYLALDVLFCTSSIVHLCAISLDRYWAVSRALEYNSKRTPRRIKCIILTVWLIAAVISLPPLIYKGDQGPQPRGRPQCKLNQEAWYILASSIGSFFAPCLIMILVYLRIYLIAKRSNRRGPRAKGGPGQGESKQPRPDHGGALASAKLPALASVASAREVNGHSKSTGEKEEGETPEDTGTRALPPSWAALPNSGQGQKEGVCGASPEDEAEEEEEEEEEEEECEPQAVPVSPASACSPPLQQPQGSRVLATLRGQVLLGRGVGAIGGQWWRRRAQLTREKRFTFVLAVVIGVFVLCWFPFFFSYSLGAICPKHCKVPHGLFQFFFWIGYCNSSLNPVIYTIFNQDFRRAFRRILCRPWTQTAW
Procedure, shortened: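 Readout: percent inhibition of specific [3H]Rauwolscine binding, measured by filtration and counting. Conditions: CHO-K1 cell-expressed receptor, 2.5 nM radioligand, 60 min, 25° C, Tris-HCl pH 7.4 buffer with MgCl2, EDTA, BSA. Non-specific binding: 10 μM Prazosin.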

[4] = target: T4, rat adrenergic α1B receptor (Rattus norvegicus, UniProt P15823); assay: Radioligand binding, adrenergic α1B ([3H]Prazosin)
T4 construct: rat adrenergic α1B receptor obtained from Wistar Rat liver; from tissue; host or cells: Wistar rat liver
T4 sequence (P15823 1-515): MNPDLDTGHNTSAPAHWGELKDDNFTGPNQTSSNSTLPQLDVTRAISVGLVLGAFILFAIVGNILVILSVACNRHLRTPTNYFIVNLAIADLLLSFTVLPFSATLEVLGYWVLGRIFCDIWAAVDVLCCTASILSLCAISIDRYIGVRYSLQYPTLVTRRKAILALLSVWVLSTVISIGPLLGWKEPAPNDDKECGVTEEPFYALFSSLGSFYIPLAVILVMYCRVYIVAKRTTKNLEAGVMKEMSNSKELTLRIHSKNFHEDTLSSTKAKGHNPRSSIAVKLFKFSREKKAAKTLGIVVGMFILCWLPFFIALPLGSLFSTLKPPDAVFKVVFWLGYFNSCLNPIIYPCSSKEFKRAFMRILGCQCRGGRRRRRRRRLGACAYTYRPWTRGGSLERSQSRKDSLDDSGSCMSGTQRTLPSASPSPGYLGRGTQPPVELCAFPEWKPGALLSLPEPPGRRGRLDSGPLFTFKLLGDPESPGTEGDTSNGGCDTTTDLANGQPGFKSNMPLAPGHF
Procedure, shortened: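 Rat α1B receptor from Wistar rat liver was incubated with 0.25 nM [3H]prazosin for 60 min at 25 °C in 50 mM Tris-HCl, pH 7.4, 0.5 mM EDTA. Non-specific binding was defined with 10 μM phentolamine. Bound radioligand was measured by filtration and counting, reported as percent inhibition of specific binding.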

[5] = read-out: Percentage inhibition of ligand binding, Adrenergic α1D (0.1 μM), compound at 0.1 μM, [3H]Prazosin, repeat datapoints each shown
[6] = read-out: Percentage inhibition of ligand binding, Adrenergic α1B (0.1 μM), compound at 0.1 μM, [3H]Prazosin, repeat datapoints each shown
[7] = compound at 0.1 μM, [3H]Prazosin, repeat assays, each datapoint shown, read-out: Percentage inhibition of ligand binding, Adrenergic α1D
[8] = compound at 0.03 μM, repeat assays, each datapoint shown, read-out: Percentage inhibition of ligand binding, Adrenergic α2B
[9] = compound at 0.1 μM, repeat assays, each datapoint shown, read-out: Percentage inhibition of ligand binding, Adrenergic α2B
[10] = compound at 0.1 μM, [3H]Prazosin, repeat assays, each datapoint shown, 0.1 µM
[11] = compound at 0.1 μM, [3H]Prazosin, repeat assays, each datapoint shown, read-out: Percentage inhibition of ligand binding, Adrenergic α1B
[12] = [3H]MK-912, repeat datapoints each shown

| SMILES | inhibition at 0.1 µM [1, 7] [%] | inhibition at 0.03 µM [3, 8] [%] | inhibition at 0.1 µM [3, 9] [%] | Percentage inhibition of ligand binding, Adrenergic α1B [4, 10] [%] | inhibition at 0.1 µM [4, 11] [%] | further results |
| --- | --- | --- | --- | --- | --- | --- |
| COc1ccc(C(C)(O)Cn2c3c(c4cc(C)ccc42)CN(C)CC3)cc1 (stereo not shown) [254b] | – | – | – | – | – | Percentage inhibition of ligand binding, Adrenergic α1D ([1]; 0.1 μM compound, 0.1 µM): 22%; Percentage inhibition of ligand binding, Adrenergic α2A ([2]; 0.1 μM compound): 57%; Percentage inhibition of ligand binding, Adrenergic α2B ([3]; 0.1 μM compound, 0.1 µM): 79%; Percentage inhibition of ligand binding, Adrenergic α1B ([4]; 0.1 μM compound, 0.1 µM): 63% |
| CCC(O)(Cn1c2c(c3cc(Cl)ccc31)CN(C)CC2)c1ccc(F)cc1 (stereo not shown) [II-160] | – | – | – | – | – | inhibition at 0.1 µM [1, 5]: 15%; inhibition at 0.03 µM ([3]; read-out: Percentage inhibition of ligand binding, Adrenergic α2B (0.03 μM), compound at 0.03 μM, repeat datapoints each shown): 39%; inhibition at 0.1 µM ([3]; read-out: Percentage inhibition of ligand binding, Adrenergic α2B (0.1 μM), compound at 0.1 μM, repeat datapoints each shown): 35%; Percentage inhibition of ligand binding, Adrenergic α1B (0.1 μM) ([4]; compound at 0.1 μM, [3H]Prazosin, repeat datapoints each shown, 0.1 µM): 14%; inhibition at 0.1 µM [4, 6]: 7% |
| Cc1ccc2c(c1)c1c(n2CC(C)(O)c2ccncc2)CCN(C)C1 (stereo not shown) [compound 2] | 13 | 75 | 95 | 28 | 27 | – |
| Cc1ccc2c(c1)c1c(n2CC(O)c2ccc(F)cc2)CCN(C)C1 (stereo not shown) [compound 30] | 49 | – | 91 | – | – | – |
| Cc1cnc2c(c1)c1c(n2CCc2ccc(C)nc2)CCN2CCCC12 (stereo not shown) [compound 74, 10-methyl-7-(2-(6-methylpyridin-3-yl)ethyl)-2,3,5,6,7,11c-hexahydro-1H-pyrido[3′,2′:4,5]pyrrolo[2,3-g]indolizine] | 57 | – | 104 | – | – | Percentage inhibition of ligand binding, Adrenergic α2A ([2]; compound at 0.1 μM, [3H]MK-912, repeat assays, each datapoint shown): 6% |
| Cc1ccc2c(c1)c1c(n2C2=C(c3cn[nH]c3)CCC2)CCN(C)C1 [compound 77, 5-(2-(1H-pyrazol-4-yl)cyclopent-1-enyl)-2,8-dimethyl-2,3,4,5-tetrahydro-1H-pyrido[4,3-b]indole] | 10 | 84 | 91 | 6 | 5 | – |
| C/C(=C\n1c2c(c3cc(C)cnc31)CN(C)CC2)c1ccc(C)nc1 [compound 78] | 22 | 67 | 87 | 12 | 11 | – |
| Cc1ccc2c(c1)c1c(n2CCc2ccccc2)CCN(C)C1 [compound 200] | – | – | – | – | – | inhibition at 0.1 µM [1, 5]: 69%; Ki [2]: 1.63 nM and 3.21 nM; inhibition at 0.03 µM [2, 12]: 81%; inhibition at 0.1 µM ([2]; read-out: Percentage inhibition of ligand binding, Adrenergic α2A (0.1 μM), compound at 0.1 μM, [3H]MK-912, repeat datapoints each shown): 92%; inhibition at 0.03 µM ([4]; read-out: Percentage inhibition of ligand binding, Adrenergic α1B (0.03 μM), compound at 0.03 μM, [3H]Prazosin, repeat datapoints each shown): 63%; inhibition at 0.1 µM [4, 6]: 83% |
| CN1CCc2c(c3cc(F)ccc3n2CCc2ccc(F)cc2)C1 [compound 219] | – | – | – | – | – | inhibition at 0.03 µM ([1]; read-out: Percentage inhibition of ligand binding, Adrenergic α1D (0.03 μM), compound at 0.03 μM, [3H]Prazosin, repeat datapoints each shown): 3%; inhibition at 0.03 µM [2, 12]: 69% |
